Experiments:
barnyardgrass [1] = experiment: Test C preemergence; type: in vivo, Echinochloa crusgalli; conditions: for Barnyardgrass plant response rating: preemergence; for Plant response rating, Barnyardgrass: Preemergence
Method in brief: (§1)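 Greenhouse herbicide screen, 10-day duration. Test chemicals in solvent/surfactant blend were sprayed onto soil at sowing (pre) or onto 2–10 cm seedlings at one to two leaves (post); injury scored visually against controls, 0 no effect to 100 complete control.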

blackgrass [2] = experiment: Test C preemergence; type: in vivo, Alopecurus myosuroides; conditions: for Blackgrass plant response rating: preemergence; for Plant response rating, Blackgrass: Preemergence
Method in brief: as §1

corn [3] = experiment: Test C preemergence; type: in vivo, Zea mays; conditions: for Corn plant response rating: preemergence; for Plant response rating, Corn: Preemergence
Method in brief: as §1

green foxtail [4] = experiment: Test C preemergence; type: in vivo, Setaria viridis; conditions: for Foxtail, Green plant response rating: preemergence; for Plant response rating, Foxtail, Green: Preemergence
Method in brief: as §1

kochia [5] = experiment: Test C preemergence; type: in vivo, Bassia scoparia; conditions: for Kochia plant response rating: preemergence; for Plant response rating, Kochia: Preemergence
Method in brief: as §1

oat, wild [6] = experiment: Test C preemergence; type: in vivo, Avena fatua; conditions: for Oat, Wild plant response rating: preemergence; for Plant response rating, Oat, Wild: Preemergence
Method in brief: as §1

pigweed, palmer [7] = experiment: Test C preemergence; type: in vivo, Amaranthus palmeri; conditions: for Pigweed, Palmer plant response rating: preemergence; for Plant response rating, Pigweed, Palmer: Preemergence
Method in brief: as §1

ragweed [8] = experiment: Test C preemergence; type: in vivo, Ambrosia artemisiifolia; conditions: for Ragweed plant response rating: preemergence; for Plant response rating, Ragweed: Preemergence
Method in brief: as §1

ryegrass, Italian [9] = experiment: Test C preemergence; type: in vivo, Lolium multiflorum; conditions: for Ryegrass, Italian plant response rating: preemergence; for Plant response rating, Ryegrass, Italian: Preemergence
Method in brief: as §1

soybean [10] = experiment: Test C preemergence; type: in vivo, Glycine max; conditions: for Soybean plant response rating: preemergence; for Plant response rating, Soybean: Preemergence
Method in brief: as §1

wheat [11] = experiment: Test C preemergence; type: in vivo, Triticum aestivum; conditions: for Wheat plant response rating: preemergence; for Plant response rating, Wheat: Preemergence
Method in brief: as §1

barnyardgrass [12] = experiment: Test C postemergence; type: in vivo, Echinochloa crusgalli; conditions: 10 days
Method in brief: as §1

blackgrass [13] = experiment: Test C postemergence; type: in vivo, Alopecurus myosuroides; conditions: 10 days
Method in brief: as §1

corn [14] = experiment: Test C postemergence; type: in vivo, Zea mays; conditions: 10 days
Method in brief: as §1

green foxtail [15] = experiment: Test C postemergence; type: in vivo, Setaria viridis; conditions: 10 days
Method in brief: as §1

kochia [16] = experiment: Test C postemergence; type: in vivo, Bassia scoparia; conditions: 10 days
Method in brief: as §1

oat, wild [17] = experiment: Test C postemergence; type: in vivo, Avena fatua; conditions: 10 days
Method in brief: as §1

pigweed, palmer [18] = experiment: Test C postemergence; type: in vivo, Amaranthus palmeri; conditions: 10 days
Method in brief: as §1

ragweed [19] = experiment: Test C postemergence; type: in vivo, Ambrosia artemisiifolia; conditions: 10 days
Method in brief: as §1

ryegrass, Italian [20] = experiment: Test C postemergence; type: in vivo, Lolium multiflorum; conditions: 10 days
Method in brief: as §1

soybean [21] = experiment: Test C postemergence; type: in vivo, Glycine max; conditions: 10 days
Method in brief: as §1

wheat [22] = experiment: Test C postemergence; type: in vivo, Triticum aestivum; conditions: 10 days
Method in brief: as §1

galium = experiment: Test C postemergence; type: in vivo, Galium aparine; conditions: 10 days
Method in brief: as §1

horseweed = experiment: Test C postemergence; type: in vivo, Erigeron canadensis; conditions: 10 days
Method in brief: as §1

barnyardgrass [23] = experiment: Test D flooded paddy test; type: in vivo, Echinochloa crus-galli; conditions: 250 g ai/ha, applied to paddy water, visual rating after 13 to 14 days, scale 0 to 100 (0 no effect, 100 complete control)
Method in brief: (§2)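 Visual ratings from 0, meaning no effect, to 100, meaning complete control, were assigned against untreated controls 13 to 14 days after compounds were added to the floodwater of pots kept 3 cm deep, with plants at the 2-leaf stage.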

ducksalad = experiment: Test D flooded paddy test; type: in vivo, Heteranthera limosa; conditions: 250 g ai/ha, applied to paddy water, visual rating after 13 to 14 days, scale 0 to 100 (0 no effect, 100 complete control)
Method in brief: as §2

rice = experiment: Test D flooded paddy test; type: in vivo, Oryza sativa; conditions: 250 g ai/ha, applied to paddy water, visual rating after 13 to 14 days, scale 0 to 100 (0 no effect, 100 complete control)
Method in brief: as §2

sedge, umbrella = experiment: Test D flooded paddy test; type: in vivo, Cyperus difformis; conditions: 250 g ai/ha, applied to paddy water, visual rating after 13 to 14 days, scale 0 to 100 (0 no effect, 100 complete control)
Method in brief: as §2

[24] = 500 g ai/ha, 0 to 100 scale (0 no effect, 100 complete control)
[25] = 125 g ai/ha, 0 to 100 scale, 0 no effect, 100 complete control
[26] = 500 g ai/ha, postemergence, 0 to 100 scale (0 no effect, 100 complete control)
[27] = Postemergence, 125 g ai/ha, 0 to 100 scale (0 no effect, 100 complete control)
[28] = 500 g ai/ha, visual rating after 10 days, 0 to 100 scale (0 no effect, 100 complete control)
[29] = Test C, 125 g ai/ha, 0 to 100 scale (0 no effect, 100 complete control)
[30] = 125 g ai/ha, postemergence, 0 to 100 scale, 0 no effect, 100 complete control
[31] = Postemergence, 500 g ai/ha, visual 0 to 100 scale (0 no effect, 100 complete control)

Compound: Cc1ncn(-c2ccc(F)c(C(=O)N3C[C@H](C)Oc4c(C)cccc43)c2)n1 [Compound 361]
- Barnyardgrass plant response rating (barnyardgrass [1]; [24]): 90
- Plant response rating, Barnyardgrass (barnyardgrass [1]; [25]): 80
- Blackgrass plant response rating (blackgrass [2]; [24]): 60
- Plant response rating, Blackgrass (blackgrass [2]; [25]): 40
- Corn plant response rating (corn [3]; [24]): 10
- Plant response rating, Corn (corn [3]; [25]): 0
- Foxtail, Green plant response rating (green foxtail [4]; [24]): 100
- Plant response rating, Foxtail, Green (green foxtail [4]; [25]): 100
- Kochia plant response rating (kochia [5]; [24]): 90
- Plant response rating, Kochia (kochia [5]; [25]): 80
- Oat, Wild plant response rating (oat, wild [6]; [24]): 50
- Plant response rating, Oat, Wild (oat, wild [6]; [25]): 0
- Pigweed, Palmer plant response rating (pigweed, palmer [7]; [24]): 100
- Plant response rating, Pigweed, Palmer (pigweed, palmer [7]; [25]): 90
- Ragweed plant response rating (ragweed [8]; [24]): 70
- Plant response rating, Ragweed (ragweed [8]; [25]): 50
- Ryegrass, Italian plant response rating (ryegrass, Italian [9]; [24]): 80
- Plant response rating, Ryegrass, Italian (ryegrass, Italian [9]; [25]): 80
- Soybean plant response rating (soybean [10]; [24]): 100
- Plant response rating, Soybean (soybean [10]; [25]): 100
- Wheat plant response rating (wheat [11]; [24]): 70
- Plant response rating, Wheat (wheat [11]; [25]): 50
- Plant response rating, Barnyardgrass (barnyardgrass [12]; [26]): 90
- Plant response rating, Barnyardgrass (barnyardgrass [12]; [27]): 70
- Plant response rating, Blackgrass (blackgrass [13]; [26]): 90
- Plant response rating, Blackgrass (blackgrass [13]; [27]): 80
- Plant response rating, Corn (corn [14]; [26]): 50
- Plant response rating, Corn (corn [14]; [27]): 20
- Plant response rating, Foxtail, Green (green foxtail [15]; [26]): 90
- Plant response rating, Foxtail, Green (green foxtail [15]; [27]): 90
- Plant response rating, Kochia (kochia [16]; [26]): 80
- Plant response rating, Kochia (kochia [16]; [27]): 70
- Plant response rating, Oat, Wild (oat, wild [17]; [26]): 80
- Plant response rating, Oat, Wild (oat, wild [17]; [27]): 30
- Plant response rating, Pigweed, Palmer (pigweed, palmer [18]; [26]): 60
- Plant response rating, Pigweed, Palmer (pigweed, palmer [18]; [27]): 20
- Plant response rating, Ragweed (ragweed [19]; [26]): 60
- Plant response rating, Ragweed (ragweed [19]; [27]): 60
- Plant response rating, Ryegrass, Italian (ryegrass, Italian [20]; [26]): 90
- Plant response rating, Ryegrass, Italian (ryegrass, Italian [20]; [27]): 80
- Plant response rating, Soybean (soybean [21]; [26]): 100
- Plant response rating, Soybean (soybean [21]; [27]): 100
- Plant response rating, Wheat (wheat [22]; [26]): 80
- Plant response rating, Wheat (wheat [22]; [27]): 40
- Plant response rating, Galium (galium; [26]): 100
- Plant response rating, Galium (galium; [27]): 100
- Plant response rating, Horseweed (horseweed; [26]): 10
- Plant response rating, Horseweed (horseweed; [27]): 0
- Plant response rating, Barnyardgrass (Flood) (barnyardgrass [23]): 30
- Plant response rating, Ducksalad (Flood) (ducksalad): 70
- Plant response rating, Rice (Flood) (rice): 15
- Plant response rating, Sedge, Umbrella (Flood) (sedge, umbrella): 95

Compound: C[C@H]1CN(C(=O)c2cc(-n3cnc(C4CC4)n3)cc3c2OCCO3)c2cccc(Cl)c2O1 [Compound 156]
- Barnyardgrass plant response rating (barnyardgrass [1]; 125 g ai/ha, 0 to 100 scale (0 no effect, 100 complete control)): 70
- Plant response rating, Barnyardgrass (barnyardgrass [1]; [28]): 90
- Plant response rating, Blackgrass (blackgrass [2]; [28]): 90
- Blackgrass plant response rating (blackgrass [2]; [29]): 50
- Plant response rating, Corn (corn [3]; [28]): 10
- Corn plant response rating (corn [3]; [29]): 0
- Plant response rating, Foxtail, Green (green foxtail [4]; [28]): 100
- Foxtail, Green plant response rating (green foxtail [4]; [29]): 100
- Plant response rating, Kochia (kochia [5]; [28]): 100
- Kochia plant response rating (kochia [5]; [29]): 80
- Plant response rating, Oat, Wild (oat, wild [6]; [28]): 40
- Oat, Wild plant response rating (oat, wild [6]; [29]): 20
- Plant response rating, Pigweed, Palmer (pigweed, palmer [7]; [28]): 100
- Pigweed, Palmer plant response rating (pigweed, palmer [7]; [29]): 100
- Plant response rating, Ragweed (ragweed [8]; [28]): 90
- Ragweed plant response rating (ragweed [8]; [29]): 70
- Plant response rating, Ryegrass, Italian (ryegrass, Italian [9]; [28]): 90
- Ryegrass, Italian plant response rating (ryegrass, Italian [9]; [29]): 60
- Plant response rating, Soybean (soybean [10]; [28]): 100
- Soybean plant response rating (soybean [10]; [29]): 80
- Plant response rating, Wheat (wheat [11]; [28]): 30
- Wheat plant response rating (wheat [11]; [29]): 10
- Plant response rating, Barnyardgrass (barnyardgrass [12]; [30]): 70
- Plant response rating, Barnyardgrass (barnyardgrass [12]; [31]): 90
- Plant response rating, Blackgrass (blackgrass [13]; [30]): 80
- Plant response rating, Blackgrass (blackgrass [13]; [31]): 90
- Plant response rating, Corn (corn [14]; [30]): 30
- Plant response rating, Corn (corn [14]; [31]): 50
- Plant response rating, Foxtail, Green (green foxtail [15]; [30]): 90
- Plant response rating, Foxtail, Green (green foxtail [15]; [31]): 90
- Plant response rating, Kochia (kochia [16]; [30]): 80
- Plant response rating, Kochia (kochia [16]; [31]): 90
- Plant response rating, Oat, Wild (oat, wild [17]; [30]): 20
- Plant response rating, Oat, Wild (oat, wild [17]; [31]): 30
- Plant response rating, Pigweed, Palmer (pigweed, palmer [18]; [30]): 80
- Plant response rating, Pigweed, Palmer (pigweed, palmer [18]; [31]): 100
- Plant response rating, Ragweed (ragweed [19]; [30]): 80
- Plant response rating, Ragweed (ragweed [19]; [31]): 100
- Plant response rating, Ryegrass, Italian (ryegrass, Italian [20]; [30]): 50
- Plant response rating, Ryegrass, Italian (ryegrass, Italian [20]; [31]): 90
- Plant response rating, Soybean (soybean [21]; [30]): 100
- Plant response rating, Soybean (soybean [21]; [31]): 100
- Plant response rating, Wheat (wheat [22]; [30]): 60
- Plant response rating, Wheat (wheat [22]; [31]): 80
- Plant response rating, Galium (galium; [30]): 100
- Plant response rating, Galium (galium; [31]): 100
- Plant response rating, Horseweed (horseweed; [30]): 50
- Plant response rating, Horseweed (horseweed; [31]): 60
- Plant response rating, Barnyardgrass (Flood) (barnyardgrass [23]): 40
- Plant response rating, Ducksalad (Flood) (ducksalad): 65
- Plant response rating, Rice (Flood) (rice): 25
- Plant response rating, Sedge, Umbrella (Flood) (sedge, umbrella): 95

Source: patent publication US20260262643A1, “HERBICIDAL BENZOXAZINES” (FMC CORPORATION, priority 2022, published 2026)
